Test results from patent US20140045806A1 (priority 2012, published 2014).
Where “and” joins values, the source holds several entries; their conditions need not be identical. Identical values can stand only once. Marks after values point to notes of the source that are not given here.

Tested on: postmenopausal women
Experiment: ERC-210 phase III trial, Abbreviated Sexual Function (ASF) questionnaire
Type: in vivo
Excerpt: The example below is intended only to illustrate a particular embodiment of the present invention and is not meant to limit the scope of the invention in any manner. This study (ERC-210) is a phase III, prospective, multicentre, randomized, placebo-controlled, and double-blind trial. […] The DHEA ovules or suppositories (Vaginorm™) containing prasterone in a lipophilic base were manufactured by Recipharm, Karlskoga, Sweden. The study was divided into two phases, namely screening followed by a treatment period of 12 weeks. The protocol was approved by the Institutional Review Board of the Centre Hospitalier de I'Université Laval (Quebec City, Canada), McGill University (Montreal, Canada), Ethica (Montreal, Canada), Eastern Virginia Medical School (Norfolk, Va., USA) and the Western Institutional Review Board (Los Angeles, USA).
The inclusion and exclusion criteria were as described in (Labrie, Archer et al. 2009b). A written informed consent was obtained from all subjects prior to the performance of any study-related procedure. […] A partial gynecological examination was performed to evaluate the aspect of the mucosa and tolerance to the medication on day 1 and at all visits. The standard laboratory tests, namely hematology (including complete blood count and coagulation), blood chemistry and urinalysis were performed at screening, day 1 and at all visits. Summary tabulations were prepared displaying the number of observations, mean or geometric mean as appropriate, SD; SEM, 95% two-sided CI; median, minimum, and maximum for continuous variables; and the number and percentage per category for categorical data. Statistical analyses were performed at the two-sided significance level of 0.05 unless otherwise stated. […] The endpoints for analysis consisted of the following: desire/interest, arousal and orgasm were self-rated by the women at screening, at day 1, and at week 4, 8 and 12 using the ASF and MENQOL questionnaires. Baseline was defined as the value on day 1, obtained before first use of the study treatment, and change from baseline to week 12 was calculated for each participant for each domain endpoint. The analysis comparing each dose of DHEA to placebo was performed by analysis of covariance, with the baseline value used as the covariate. Missing values were replaced by the last observation made.
The other questionnaire used in our study to investigate sexual dysfunction has been the Abbreviated Sexual Function (ASF) questionnaire. […] When the groups with no MS pain are considered, improvements of −1.2% (p=0.9028), 31% (p=0.0337), 4.8% (p=0.3706) and 3.7% (p=0.5372) are observed compared to 12% (p=0.0134), 32% (p=0.1349), 16% (p=0.8546) and 29% (p=0.0341) in the corresponding MS pain groups.
When the orgasm domain of the ASF questionnaire is analyzed, a strong placebo effect is observed in response to the composite of the three following questions; a) over the last 4 weeks, how often did you have an orgasm when you took part in sexual activity (may be with or without partner); b) over the last 4 weeks, in general, how pleasurable were the orgasms the you had and; c) over the last 4 weeks, in general, how easy was it for you to reach orgasm?

[1] = 0.25% DHEA intravaginal daily 12 weeks, MS pain at sexual activity at baseline
[2] = 0.25% DHEA intravaginal daily 12 weeks, all subjects (ITT)
[3] = 0.25% DHEA intravaginal daily 12 weeks, no MS pain at sexual activity at baseline
[4] = 0.5% DHEA intravaginal daily 12 weeks, MS pain at sexual activity at baseline
[5] = 0.5% DHEA intravaginal daily 12 weeks, all subjects (ITT)
[6] = 0.5% DHEA intravaginal daily 12 weeks, no MS pain at sexual activity at baseline
[7] = 1.0% DHEA intravaginal daily 12 weeks, no MS pain at sexual activity at baseline
[8] = Pool 3 Doses DHEA intravaginal daily 12 weeks, MS pain at sexual activity at baseline
[9] = Pool 3 Doses DHEA intravaginal daily 12 weeks, MS pain at sexual activity at baseline, listed as prasterone
[10] = Pool 3 Doses DHEA intravaginal daily 12 weeks, all subjects (ITT)
[11] = Pool 3 Doses DHEA intravaginal daily 12 weeks, all subjects (ITT), listed as prasterone
[12] = Pool 3 Doses DHEA intravaginal daily 12 weeks, no MS pain at sexual activity at baseline
[13] = Pool 3 Doses DHEA intravaginal daily 12 weeks, no MS pain at sexual activity at baseline, listed as prasterone
[14] = average of the 3 DHEA doses, MS PAIN at baseline
[15] = average of the 3 DHEA doses, NO MS PAIN at baseline
[16] = average of the 3 DHEA doses, TOTAL (all women)

C[C@]12CC[C@H](O)CC1=CC[C@@H]1[C@@H]2CC[C@]2(C)C(=O)CC[C@@H]12 [DHEA, (3β)-3-Hydroxyandrost-5-en-17-one]
ASF Arousal/lubrication score, average % change from baseline to Week 12 (increased from baseline) [1]: 189% | ASF Arousal/sensation score, average % change from baseline to Week 12 (increased from baseline) [1]: 97% | ASF Desire score, average % change from baseline to Week 12 (increased from baseline) [1]: 32% | ASF Orgasm score, average % change from baseline to Week 12 (increased from baseline) [1]: 66% | ASF SUMMARY SCORE, average % change from baseline to Week 12 (increased from baseline) [1]: 59% | ASF Arousal/sensation score, average % change from baseline to Week 12 (increased from baseline) [2]: 80% | ASF Orgasm score, average % change from baseline to Week 12 (increased from baseline) [2]: 64% | ASF Arousal/lubrication score, average % change from baseline to Week 12 (increased from baseline) [3]: 95% | ASF Arousal/sensation score, average % change from baseline to Week 12 (increased from baseline) [3]: 43% | ASF Orgasm score, average % change from baseline to Week 12 (increased from baseline) [3]: 59% | ASF SUMMARY SCORE, average % change from baseline to Week 12 (increased from baseline) [3]: 42% | ASF Arousal/sensation score, average % change from baseline to Week 12 (increased from baseline) [4]: 66% | ASF Desire score, average % change from baseline to Week 12 (increased from baseline) [4]: 16% | ASF Orgasm score, average % change from baseline to Week 12 (increased from baseline) [4]: 51% | ASF SUMMARY SCORE, average % change from baseline to Week 12 (increased from baseline) [4]: 42% | ASF Desire score, average % change from baseline to Week 12 (increased from baseline) [5]: 13% | ASF Orgasm score, average % change from baseline to Week 12 (increased from baseline) [5]: 53% | ASF SUMMARY SCORE, average % change from baseline to Week 12 (increased from baseline) [5]: 39% | ASF Arousal/lubrication score, average % change from baseline to Week 12 (increased from baseline) [6]: 106% | ASF Arousal/sensation score, average % change from baseline to Week 12 (increased from baseline) [6]: 103% | ASF Desire score, average % change from baseline to Week 12 (increased from baseline) [6]: 4.8% | ASF Orgasm score, average % change from baseline to Week 12 (increased from baseline) [6]: 56% | ASF SUMMARY SCORE, average % change from baseline to Week 12 (increased from baseline) [6]: 31% | ASF Orgasm score, average % change from baseline to Week 12 (increased from baseline) (1.0% DHEA intravaginal daily 12 weeks, MS pain at sexual activity at baseline): 76% | ASF Orgasm score, average % change from baseline to Week 12 (increased from baseline) (1.0% DHEA intravaginal daily 12 weeks, all subjects (ITT)): 71% | ASF Arousal/lubrication score, average % change from baseline to Week 12 (increased from baseline) [7]: 63% | ASF Arousal/sensation score, average % change from baseline to Week 12 (increased from baseline) [7]: 30% | ASF Desire score, average % change from baseline to Week 12 (increased from baseline) [7]: 3.7% | ASF Orgasm score, average % change from baseline to Week 12 (increased from baseline) [7]: 50% | ASF SUMMARY SCORE, average % change from baseline to Week 12 (increased from baseline) [7]: 21% | Sum of changes above placebo, ASF domains (MS group): 209.4% | ASF Arousal/lubrication score, average % change from baseline to Week 12 (increased from baseline) [8]: 171%** | ASF Arousal/sensation score, average % change from baseline to Week 12 (increased from baseline) [8]: 76.2%* | ASF Desire score, average % change from baseline to Week 12 (increased from baseline) [8]: 24.9% | ASF Orgasm score, average % change from baseline to Week 12 (increased from baseline) [8]: 64.3% | ASF Arousal/lubrication score, average % change from baseline to Week 12 (increased from baseline) [9]: 171% | ASF Arousal/sensation score, average % change from baseline to Week 12 (increased from baseline) [9]: 76.2% | ASF Desire score, average % change from baseline to Week 12 (increased from baseline) [9]: 24.9% | ASF Orgasm score, average % change from baseline to Week 12 (increased from baseline) [9]: 64.3% | ASF Arousal/lubrication score, average % change from baseline to Week 12 (increased from baseline) [10]: 149%** | ASF Arousal/sensation score, average % change from baseline to Week 12 (increased from baseline) [10]: 71.2%** | ASF Desire score, average % change from baseline to Week 12 (increased from baseline) [10]: 21.0%* | ASF Orgasm score, average % change from baseline to Week 12 (increased from baseline) [10]: 62.4% | ASF SUMMARY SCORE, average % change from baseline to Week 12 (increased from baseline) [10]: 46.6%** | ASF Arousal/lubrication score, average % change from baseline to Week 12 (increased from baseline) [11]: 149% | ASF Arousal/sensation score, average % change from baseline to Week 12 (increased from baseline) [11]: 71.2% | ASF Desire score, average % change from baseline to Week 12 (increased from baseline) [11]: 21.0% | ASF Orgasm score, average % change from baseline to Week 12 (increased from baseline) [11]: 62.4% | ASF SUMMARY SCORE, average % change from baseline to Week 12 (increased from baseline) [11]: 46.6% | ASF Arousal/lubrication score, average % change from baseline to Week 12 (increased from baseline) [12]: 84.6% | ASF Arousal/sensation score, average % change from baseline to Week 12 (increased from baseline) [12]: 52.7% | ASF Desire score, average % change from baseline to Week 12 (increased from baseline) [12]: 14.0% | ASF Orgasm score, average % change from baseline to Week 12 (increased from baseline) [12]: 55.3% | ASF SUMMARY SCORE, average % change from baseline to Week 12 (increased from baseline) [12]: 31.1% | ASF Arousal/lubrication score, average % change from baseline to Week 12 (increased from baseline) [13]: 84.6% | ASF Arousal/sensation score, average % change from baseline to Week 12 (increased from baseline) [13]: 52.7% | ASF Desire score, average % change from baseline to Week 12 (increased from baseline) [13]: 14.0% | ASF Orgasm score, average % change from baseline to Week 12 (increased from baseline) [13]: 55.3% | ASF Arousal/lubrication, average % change from baseline to Week 12 in severity score over placebo [14]: 118%** | ASF Arousal/sensation, average % change from baseline to Week 12 in severity score over placebo [14]: 64.2%* | ASF Desire, average % change from baseline to Week 12 in severity score over placebo [14]: 12.9% | ASF Orgasm, average % change from baseline to Week 12 in severity score over placebo [14]: 14.3% | ASF Arousal/lubrication, average % change from baseline to Week 12 in severity score over placebo [15]: 67.6% | ASF Arousal/sensation, average % change from baseline to Week 12 in severity score over placebo [15]: 58.0% | ASF Desire, average % change from baseline to Week 12 in severity score over placebo [15]: 15.2% | ASF Orgasm, average % change from baseline to Week 12 in severity score over placebo [15]: 59.4% | ASF Summary score, average % change from baseline to Week 12 in severity score over placebo [15]: 32.1% | ASF Arousal/lubrication, average % change from baseline to Week 12 in severity score over placebo [16]: 104%** | ASF Arousal/sensation, average % change from baseline to Week 12 in severity score over placebo [16]: 62.6%** | ASF Desire, average % change from baseline to Week 12 in severity score over placebo [16]: 12.3%* | ASF Orgasm, average % change from baseline to Week 12 in severity score over placebo [16]: 26.4% | Sum of changes above placebo, ASF domains (non MS group): 200.2% and 202.2% | Specificity of the effect of DHEA, ASF (non MS pain group versus MS pain group): 30 fold
